Literature values, collected in US20060165637A1, “Topical agent containing phytanic acid or a derivative thereof” (priority 2003, published 2006).

What was measured:
[1] = tested on: RXR; conditions: relative to retinoic acid
[2] = applied topically to the skin

| RXR binding affinity, times weaker than that of retinoic acid [1] | conversion into phytanic acid [2] | SMILES |
| --- | --- | --- |
| 200 times |  | CC(C)CCCC(C)CCCC(C)CCCC(C)CC(=O)O (centres unmarked) [Phytanic acid, 3,7,11,15-tetramethylhexadecanoic acid] |
|  | does not occur | C/C(=C\CO)CCC[C@H](C)CCC[C@H](C)CCCC(C)C [phytol] |
